Test: Brain tissue concentration of administered d5OT by LC-MS/MS (terminal experiment)
Assay type: in vivo, rhesus macaques (Macaca mulatta)
Design: key to BRAIN d5OT concentration: ND: not detected; +: detected but not quantifiable
Conditions: for tissue level at time at 148 min: female
Experimental: Monkeys were divided into three groups, each with two monkeys; each group received the following in a terminal study at the 5th week: Group 1 (Monkeys ID# 1 and ID# 5) received 40 IU of d5OT IN, Group 2 received 80 IU of d5OT IN (Monkeys ID# 2 and ID# 4) and Group 3 received 80 IU of d5OT IV (Monkeys ID# 3 and ID# 6). Animals were perfused on average, 140 ± 7 (mean ± SD) min after d5OT administration (range = 135–149 min) (Table 4). Plasma and CSF were drawn just before administration of d5OT, at the midpoint between d5OT administration and perfusion (~60 min post-d5OT administration), and just before perfusion.
Brain tissue distribution of d5OT, as well as the endogenous concentrations of OT (d0OT), were measured in the following 12 brain regions: cerebellum, brainstem, striatum, amygdala, thalamus, visual cortex, insular cortex, hypothalamus, hippocampus, mPFC (Brodmann areas 32,25,24), dPFC (Brodmann areas 46,9,10), and OFC (Brodmann areas 14,13,12) (Tables 1, 2 and 3).
Brain tissue sample preparation: Samples (~1.5 mg per sample) were individually weighed and placed into 12 mm × 75 mm glass tubes containing 1.5 ml ice-cold 1 M acetic acid and 30 µl of OT-d10 internal standard. Tissues were homogenized on ice and the resulting homogenates were poured into individual 15 ml polystyrene tubes. The original glass tube was rinsed with 1 ml acetonitrile, and this rinse was added to the appropriate 15 ml polystyrene tube containing the homogenate. After all homogenizations were complete, 3 ml acetonitrile was added to each tube and extraction proceeded, as described for the plasma and CSF samples.
LC–MS/MS instrument parameters: Microtiter plates were prepared, as described above, and loaded onto a SIL-30ACMP autosampler set at 4 °C (Shimadzu). Forty microliters of each standard, QC or sample were injected onto an ACE Excel 2 C18-PFP 50 mm × 2.1 mm column (Advanced Chromatography Technologies, LTD, Aberdeen, Scotland) at 50 °C using reversed-phase chromatography. Mobile phase A was 0.1% formic acid in water and mobile phase B was 0.1% formic acid in ACN. The LC time gradient was created using two Nexera LC-30AD pumps (Shimadzu) running at 0.5 ml/min. Chromatography for serum and CSF samples began at 10% B and ended at 16% B at 3.6 min. One minute at 60% B was then required to wash the column, and the pumps re-equilibrated at 10% B for an additional 1.7 min (total run time ~6 min). Outside of the 1.55–3.55 min window during which OT eluted, a divert valve sent the LC effluent to waste.
Heated electrospray […] in positive mode, with scheduled multiple reaction monitoring (MRM) on a Shimadzu LCMS-8050, was used for detection of OT. The interface temperature was 270 °C and heat block temperature was 170 °C. Gas was supplied by a Peak Genius 1051 nitrogen and air generator (Peak Scientific, Inchinnan, UK). Nitrogen gas was used for nebulizing (1 L/min) and drying (8.2 L/min), while air was used for heating (7.8 L/min). A capillary B needle was used in the interface. Needle protrusion was set to 1.25 mm and probe distance was set to 1.0 mm; both were determined empirically. Argon (Airgas, Radnor, PA) was used for the collision-induced dissociation at 330 kPa. The MS/MS conditions for OT were optimized using the automated MRM optimization procedure in LabSolutions software (Shimadzu). We collected two MRM transitions each, for d0OT (1007.40 > 723.40 and 1007.40 > 285.30), d5OT (1012.00 > 723.40 and 1012.00 > 290.35), and d10OT (1017.70 > 723.35 and 1017.70 > 295.40); the first transition listed in each case was used for quantitation, while the second was used as a reference ion. Retention times for d0OT, d5OT, and d10OT were 3.290, 3.270, and 3.253 min, respectively.
The sensitivities of each assay within the method were determined by the lowest and highest concentration calibrators in the calibration curve. The lower limit of quantitation (LLOQ) for d0OT was 10 pg/ml (4 pg/col); the LLOQ for d5OT was 100 pg/ml (40 pg/col). […]

Brain penetrance of d5OT in the striatum, % of the dose delivered IN (40 IU IN, assuming ~20% of delivered volume reaches upper nasal cavity): ~0.03% | BRAIN d5OT concentration (Amygdala, 40 IU IN, monkey #5 (F), perfused 138 min post-dose, LC-MS/MS): + | BRAIN d5OT concentration (Brainstem, 40 IU IN, monkey #1 (F), perfused 148 min post-dose, LC-MS/MS): + | BRAIN d5OT concentration (Brainstem, 80 IU IN, monkey #2 (M), 136 min post-dose, molarity calculated for extracellular fluid volume (20% of brain volume)): < 1 nM | BRAIN d5OT concentration (Brainstem, 80 IU IN, monkey #2 (M), perfused 136 min post-dose, LC-MS/MS): 0.14 pg/mg | BRAIN d5OT concentration (Brainstem, 80 IU IN, monkey #4 (M), 135 min post-dose, molarity calculated for extracellular fluid volume (20% of brain volume)): 1 nM | BRAIN d5OT concentration (Brainstem, 80 IU IV, monkey #6 (F), perfused 135 min post-dose, LC-MS/MS): + | BRAIN d5OT concentration (Cerebellum, 80 IU IN, monkey #4 (M), perfused 135 min post-dose, LC-MS/MS): + | BRAIN d5OT concentration (OFC, 80 IU IN, monkey #2 (M), 136 min post-dose, molarity calculated for extracellular fluid volume (20% of brain volume)): 11 nM | BRAIN d5OT concentration (Striatum, 40 IU IN, monkey #1 (F), 148 min post-dose, molarity calculated for extracellular fluid volume (20% of brain volume)): 13 nM | BRAIN d5OT concentration (Striatum, 40 IU IN, monkey #5 (F), perfused 138 min post-dose, LC-MS/MS): + | BRAIN d5OT concentration (Thalamus, 40 IU IN, monkey #1 (F), 148 min post-dose, molarity calculated for extracellular fluid volume (20% of brain volume)): 1 nM | d5OT concentration in striatum (highest), comparable to that in the OFC (after IN d5OT, Table 1): ~ 10 nM | BRAIN d5OT concentration (dPFC, 40 IU IN, monkey #5 (F), perfused 138 min post-dose, LC-MS/MS): + | BRAIN d5OT concentration (dPFC, 80 IU IN, monkey #4 (M), perfused 135 min post-dose, LC-MS/MS): + | BRAIN d5OT concentration (dPFC, 80 IU IV, monkey #6 (F), perfused 135 min post-dose, LC-MS/MS): + | tissue level at time at 148 min (rhesus monkey, brain (striatum), Striatum, 40 IU IN, monkey #1 (F), perfused 148 min post-dose, LC-MS/MS): 2.41 ng/g | tissue level at time at 148 min (rhesus monkey, brain (thalamus), Thalamus, 40 IU IN, monkey #1 (F), perfused 148 min post-dose, LC-MS/MS): 0.23 ng/g | BRAIN d5OT concentration (mPFC, 80 IU IV, monkey #6 (F), perfused 135 min post-dose, LC-MS/MS): + | tissue level at time at 136 min (male, rhesus monkey, brain (OFC), OFC, 80 IU IN, monkey #2 (M), perfused 136 min post-dose, LC-MS/MS): 2.04 ng/g | tissue level at time at 2.25 h (male, rhesus monkey, brain (brainstem), Brainstem, 80 IU IN, monkey #4 (M), perfused 135 min post-dose, LC-MS/MS): 0.24 ng/g | Brain concentrations of d5OT after IN delivery (on the order of, Table 1): ≥ 1 nM
Compound: CC[C@H](C)[C@@H]1NC(=O)[C@H](Cc2ccc(O)cc2)NC(=O)[C@@H](N)CSSC[C@@H](C(=O)N2CCC[C@H]2C(=O)N[C@@H](CC(C)C)C(=O)NCC(N)=O)NC(=O)[C@H](CC(N)=O)NC(=O)[C@H](CCC(N)=O)NC1=O [d5OT]
